Measured values taken from patent publication US4383113A, “Agricultural sulfonamides” (E. I. Du Pont de Nemours and Company, priority 1981, dated 1983).

Legend:
[1] = test system: wheat; assay: Test A pre-emergence; type: in vivo; design: key: 0 = no effect, 10 = maximum effect; letter = response symbol; conditions: 0.4 kg/ha
Procedure, shortened: (§1)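 Seeds and tubers were treated preemergence in a growth medium with compound in a nonphytotoxic solvent, against untreated controls; emerged plants such as two-leaf barnyardgrass and five-leaf cotton were sprayed postemergence, against solvent-sprayed controls. After sixteen days in a greenhouse, response was rated visually from 0 to 10.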

[2] = test system: soybean; assay: Test A pre-emergence; type: in vivo; design: key: 0 = no effect, 10 = maximum effect; letter = response symbol; conditions: 0.4 kg/ha
Procedure, shortened: as §1

[3] = test system: rice; assay: Test A pre-emergence; type: in vivo; design: key: 0 = no effect, 10 = maximum effect; letter = response symbol; conditions: 0.4 kg/ha
Procedure, shortened: as §1

[4] = test system: sorghum; assay: Test A pre-emergence; type: in vivo; design: key: 0 = no effect, 10 = maximum effect; letter = response symbol; conditions: 0.4 kg/ha
Procedure, shortened: as §1

[5] = test system: corn; assay: Test A pre-emergence; type: in vivo; design: key: 0 = no effect, 10 = maximum effect; letter = response symbol; conditions: 0.4 kg/ha
Procedure, shortened: as §1

[6] = test system: crabgrass; assay: Test A pre-emergence; type: in vivo, Digitaria spp.; design: key: 0 = no effect, 10 = maximum effect; letter = response symbol; conditions: 0.4 kg/ha
Procedure, shortened: as §1

[7] = test system: cassia; assay: Test A pre-emergence; type: in vivo, Cassia tora; design: key: 0 = no effect, 10 = maximum effect; letter = response symbol; conditions: 0.4 kg/ha
Procedure, shortened: as §1

[8] = test system: nutsedge; assay: Test A pre-emergence; type: in vivo, Cyperus rotundus; conditions: 0.4 kg/ha
Excerpt: The activity of these compounds was discovered in a number of greenhouse and field tests. The ratings are based on a numerical scale extending from 0=no effect, to 10=maximum effect. The accompanying descriptive symbols have the following meanings:
Seeds of crabgrass (Digitaria spp.), barnyardgrass (Echinochloa crusgalli), wild oats (Avena fatua), cassia (Cassia tora), morningglory (Ipomoea spp.), cocklebur (Xanthium spp.), sorghum, corn, soybean, rice, wheat and nutsedge tubers (Cyperus rotundus) were planted in a growth medium and treated preemergence with a nonphytotoxic solvent solution of the compounds of Table XII. Other batches of seeds and tubers for all of the foregoing weed and crop plants were planted at the same time as controls. The control plantings were untreated; i.e., neither any compound nor any solvent was applied. At the same time, cotton having five leaves (including cotyledonary ones), bush beans with the third trifoliate leaf expanding, crabgrass with two leaves, barnyardgrass with two leaves, wild oats with two leaves, cassia with three leaves (including cotyledonary ones), morningglory with four leaves (including the cotyledonary ones), cocklebur with four leaves (including the cotyledonary ones), sorghum with four leaves, corn with four leaves, soybean with two cotyledonary leaves, rice with three leaves, wheat with one leaf, and nutsedge with three-five leaves were sprayed with a nonphytotoxic solvent solution of the compounds of Table XII. Other groups of all the same weed and crop plants were sprayed with the same nonphytotoxic solvent so as to provide control plants. Preemergence and postemergence treated plants and controls were maintained in a greenhouse for sixteen days, then all treated plants were compared with their respective controls and rated visually for response to treatment.

[9] = test system: wild oats; assay: Test A pre-emergence; type: in vivo, Avena fatua; design: key: 0 = no effect, 10 = maximum effect; letter = response symbol; conditions: 0.4 kg/ha
Procedure, shortened: as §1

[10] = test system: morningglory; assay: Test A pre-emergence; type: in vivo, Ipomoea spp.; design: key: 0 = no effect, 10 = maximum effect; letter = response symbol; conditions: 0.4 kg/ha
Procedure, shortened: as §1

[11] = test system: barnyardgrass; assay: Test A pre-emergence; type: in vivo, Echinochloa crusgalli; design: key: 0 = no effect, 10 = maximum effect; letter = response symbol; conditions: 0.4 kg/ha
Procedure, shortened: as §1

[12] = test system: purple nutsedge; assay: Test F post-emergence; type: in vivo, Cyperus rotundus
Excerpt: (§2) Purple nutsedge tubers (Cyperus rotundus) were planted about 2 cm deep in Fallsington silt loam contained in plastic pots 10 cm in diameter. Five tubers were put in each pot. Compounds of this invention were sprayed dissolved in a non-phytotoxic solvent at a volume rate of 560 l/ha. in four different methods of treatment, i.e., soil surface spray, tuber/soil spray, soil incorporated and post-emergence. For the soil surface spray, the compounds were sprayed on the firmed soil surface immediately after planting. For the tuber/soil spray, the compounds were sprayed on the exposed tubers and subtending soil before the untreated covering soil was added. Soil incorporation treatments were mixed in the covering soil. Post-emergence treatments were sprayed on the nutsedge foliage and surrounding soil surface after the nutsedge had emerged and had reached the height of about 12 cm.
(§3) Immediately after spraying the surface spray, tuber/soil spray and soil incorporated treatments were misted with about 0.3 cm of water over a 90 minute period and then placed in the greenhouse. Post-emergence treatments were placed directly into the greenhouse and watered carefully so that treatments would not be washed from the foliage.

[13] = test system: purple nutsedge; assay: Test F soil incorporated; type: in vivo, Cyperus rotundus
Excerpt: as §2, §3

[14] = test system: purple nutsedge; assay: Test F soil surface spray; type: in vivo, Cyperus rotundus; conditions: .032 kg/ha
Excerpt: as §2, §3

[15] = test system: purple nutsedge; assay: Test F tuber/soil spray; type: in vivo, Cyperus rotundus
Excerpt: as §2, §3

SMILES	response rating [1]	response rating [2]	response rating [3]	response rating [4]	response rating [5]	response rating [6]	response rating [7]	response rating [8]	response rating [9]	response rating [10]	response rating [11]	response rating after 4 weeks ([12]; .032 kg/ha)	response rating after 4 weeks ([12]; .125 kg/ha)	response rating after 4 weeks ([13]; .008 kg/ha)	response rating after 4 weeks [14]	response rating after 4 weeks ([15]; .008 kg/ha)	response rating after 4 weeks ([13]; .032 kg/ha)	response rating after 4 weeks ([15]; .032 kg/ha)
COC(=O)c1ccccc1S(=O)(=O)NC(=O)N(C)c1nc(C)cc(C)n1 [drawing 486]	4H	0	8H	4G	3G	3G	0	0	0	0	2G							
CCCCCCCCCCOC(=O)c1ccccc1S(=O)(=O)NC(=O)Nc1nc(C)nc(OC)n1 [drawing 497]	0	0	0	3G	4G	2G		2G	0	0	0							
COC(=O)c1cc(Cl)ccc1S(=O)(=O)NC(=O)Nc1nc(C)cc(OC)n1 [drawing 604]												9C	9C	7G	9G	7G		
CCCCCCCCCCOC(=O)c1ccccc1S(=O)(=O)NC(=O)Nc1nc(OC)nc(OC)n1 [drawing 496]	0	1C	0	2H	2G	0		0	0	4G	0							
COC(=O)c1ccccc1S(=O)(=O)NC(=O)Nc1ncccn1 [drawing 596]												0	9C		0		0	2G
